From PMC4585737, “Lipoproteins/peptides are sepsis-inducing toxins from bacteria that can be neutralized by synthetic anti-endotoxin peptides” (Scientific Reports, 2015)
Entries after “also recorded” stand apart in the source; their conditions may differ.

Assays:
Pam3CSK4 = assay: Isothermal titration calorimetry of peptide into Pam3CSK4; assay type: binding
Experimental: (§1) Microcalorimetric measurements of peptide binding to selected LP, i.e., Pam3CSK4 and FSL-1 were performed on a MCS isothermal titration calorimeter (Microcal, Freiburg, Germany) at 37 °C, as previously described. The LP containing solutions (0.05 mM, prepared as described above) were dispensed into the microcalorimetric cell (volume 1.5 ml), and the peptide solutions (1 mM) were loaded into the syringe compartment (volume 0.1 ml). After temperature equilibration, the peptide was titrated in 3 μl aliquots every 5 min into the LP-containing cell under constant stirring and the heat of interaction after each injection measured by the MCS instrument was plotted versus time.

Balb/C mice [1] = assay: Serum cytokine response in mice after intraperitoneal inoculation; assay type: in vivo, mouse; conditions: 400 μg peptide i.p. immediately after 40 μg FSL-1, different site, n = 5
Experimental: (§2) Seven-week-old female SPF-free Balb/C mice of 20 g of body weight, approximately, were purchased from Harlan Spain (Harlan Interfauna Iberica S.A., Barcelona, Spain) and randomly distributed in experimental groups (at least 4 animals per group except for the determination of lethal dose (n = 3)). Sample size was calculated based on previous results with the same animal model. Animals were housed in individually ventilated cages (5 mice per cage) bedded with hardwood bedding. Mice were provided ad libitum access to feed and water and lighting was adjusted to a 14-hour light/10-hour dark cycle. During the experiments, the condition of the animals was monitored daily every 4 hours and animals displaying persistent motor ataxia and hunched posture were euthanized.
To study if FSL-1 had pro-inflammatory cytokine-inducing activity, animals were intraperitoneally inoculated with 40 μg of FSL-1 resuspended in 200 μl of pyrogen-free saline. Blood samples were taken both at 1.5 h or 4 h after FSL-1 challenge to measure TNFα and IL-6 levels. For this purpose, mice were anesthetised, a blood sample was obtained by the retroorbital plexus and serum cytokine levels were measured using Quantikine Immunoassays kits (R&D systems, Minneapolis, USA) following manufacturer’s instructions. Differences between groups were statistically analyzed using the Mann-Whitney U test.
To evaluate the ability of Aspidasept® to neutralize the FSL-1 induced pro-inflammatory cytokines, a group of animals received by the intraperitoneal route first 40 μg of FSL-1 and then 400 μg of the drug resuspended in 100 μl of pyrogen-free saline. This second injection was administered immediately after FSL-1 challenge at a different site of the peritoneum. TNFα and IL-6 levels were measured (see above) at 1.5 h or 4 h after challenge, respectively, coinciding with the peak of cytokine secretion, as determined in preliminary experiments.

Balb/C mice [2] = assay: Lethal toxemia in galactosamine-sensitized mice; assay type: in vivo, mouse; conditions: 200 μg/mouse peptide i.p. after 4 μg FSL-1 + D-galactosamine 18 mg/mouse; n = 6; up to 4 days; Kaplan-Meier, p < 0.05
Experimental: as §2
To determine the lethal dose of FSL-1 in mice, the method of Galanos and collaborators[48] was followed with some modifications. Briefly, animals were intraperitoneally inoculated with increasing amounts of FSL-1 (50 ng, 500 ng, 5 μg and 50 μg) supplemented with 18 mg of D-galactosamine in a final volume of 200 μl of pyrogen-free saline. Galactosamine is known to sensitize mice to pro-inflammatory compounds such as LPS, thus making it possible to use lower amounts of the stimulatory drug[46]. The ability of Aspidasept® to protect mice from FSL-1 dependent lethal toxemia was assessed by co-administering FSL-1 (4 μg/mouse) with D-galactosamine (18 mg/mouse) intraperitoneally.
Results were globally analyzed by means of a Kaplan-Meier survival analysis (SPSS 15.0). When the survival plots were parallel, the data were compared by the log-rank test, whereas the Breslow-Gehan-Wilcoxon test was applied when the plots intersected.

human MNCs = conditions: even at [LPS]:[Aspidasept] weight ratios as low as 1:1; cited from earlier work
From the text: In this section, we first present in vitro data on the production of pro-inflammatory cytokines by human cells in response to LP or LTA from different origin and its neutralization by SALP. Then, we used a mouse model of acute toxemia to characterize the in vivo expression of those cytokines and to study if SALP can protect animals against lethal LP-induced sepsis.

human macrophages = assay: TNFα production in human macrophages stimulated by LPS or LP, and its inhibition by SALP; assay type: cell-based
Experimental: In some stimulation experiments, also macrophages were used. Briefly, MNC were isolated from peripheral blood from healthy donors by the Hypaque-Ficoll gradient method. To differentiate the monocytes to macrophages cells were cultivated in Teflon bags in the presence of 2 ng/ml M-CSF in RPMI 1640 medium (endotoxin <0.01 EU/ml; Biochrom, Berlin, Germany) containing 100 U/ml penicillin, 100 μg/ml streptomycin, 2 mM L-glutamine and 4% heat-inactivated human serum type AB at 37 °C and 6% CO2. On day 6, cells were washed with PBS, detached by Trypsin-EDTA treatment and seeded at 1 × 10^6 cells/ml in complete medium in 96-well tissue culture dishes (Nunc, Wiesbaden, Germany). After stimulation of cells with various LP for 4 h, cell-free supernatants of duplicate samples were collected, pooled and stored at −20 °C until determination of cytokine content. Data shown are representative of at least three independent experiments.
LP preparations were pre-warmed for 30 min at 37 °C, and added to the cultures at 20 μl per well. In inhibition experiments, different SALP were added directly after LPS/LP/LTA administration. […]

FSL-1 = assay: Isothermal titration calorimetry of peptide into FSL-1; assay type: binding; conditions: LP 0.05 mM, peptide 1 mM titrated in 3 μl portions every 5 min, 37 °C
Experimental: as §1

For “GCKKYRRFRWKFKGKFWFWG [Aspidasept®, synthetic anti-LPS peptide (SALP), 20′mer, anti-septic therapeutic drug candidate]”, the “ITC: Pam3CSK4:peptide interaction” value (Pam3CSK4; LP 0.05 mM, peptide 1 mM titrated in 3 μl portions every 5 min, 37 °C) was “weak exothermic reaction; also recorded: no clear thermal reaction”, the “affinity of the peptide towards the LP” value (Pam3CSK4; Pam3CSK4, concluded from ITC) was “poor affinity” and the “inhibition of FSL-1 induced TNFα stimulation in mice” value (Balb/C mice [1]; 1.5 h, p < 0.01) was “totally inhibited”. The “reduction of FSL-1 induced IL-6 levels in mice” value (Balb/C mice [1]; 4 h) was “slight reduction”, the “survival of mice challenged with FSL-1” value (Balb/C mice [2]) was “significant survival benefit” and the “inhibition of LPS-induced cytokine expression in human MNCs” value (human MNCs) was “efficiently inhibits”. For the same sequence, the “inhibition of TNFα production” value (human macrophages; stimulus LP SitC 1000 and 100 ng/ml, 10:1 excess of peptide, three independent measurements) was “strong inhibition”, the “inhibition of LP-dependent TNFα secretion” value (human macrophages; stimulus LP SitC, all tested concentrations, [LP]:[Pep] 1:10 and 1:100 weight%) was “almost totally abrogated” and the “ITC: FSL-1:peptide interaction” value (FSL-1) was “exothermic reaction with saturation kinetics; also recorded: considerable reaction with saturation characteristics”.
